“Also recorded” adds a separate entry of the source.
Key:
M. luteus = assay: Kill or inhibit growth/proliferation; morphology, biofilm and growth disruption (Tables 5, 6); assay type: cell-based, Micrococcus luteus; set-up: key: A: Peptide aggregates; B: Less hyphal formation; Clumps; Diffuse clumps and small polyps; F: Diffuse growth; H: Thin; I: Growth inhibition; Microcolony formation; Rippled; Small polyps; Thick; W: Halo formation on top, microlonies on bottom; note: test concentration or dose not given here
S. epidermidis = assay: as above; assay type: cell-based, Staphylococcus epidermidis; set-up: key: A: Peptide aggregates; B: Less hyphal formation; Clumps; Diffuse clumps and small polyps; F: Diffuse growth; H: Thin; I: Growth inhibition; Microcolony formation; Rippled; Small polyps; Thick; W: Halo formation on top, microlonies on bottom
MRSA = assay: as above; assay type: cell-based, Methicillin-resistant Staphylococcus aureus; set-up: key: A: Peptide aggregates; B: Less hyphal formation; Clumps; Diffuse clumps and small polyps; F: Diffuse growth; H: Thin; I: Growth inhibition; Microcolony formation; Rippled; Small polyps; Thick; W: Halo formation on top, microlonies on bottom
microorganisms = assay: Peptides having multiple activities (targeting/binding, antimicrobial, growth or phenotype altering)
Description: In certain embodiments, peptides described herein can have multiple activities. Thus for example, a peptide can have both binding/targeting activity and antimicrobial activity. Such peptides can be used, e.g., in a chimeric construct, for any or all of these properties. Thus, for example, a peptide designated “B” in Table 8 can be used as a targeting peptide. If it is also designated G or M it can also be used for antimicrobial activity.

[1] = tested on: microorganisms (e.g., bacteria, yeasts, fungi); assay: Targeting peptide binding to target microorganisms (Table 3); conditions: preferably 1x PBS
C. jeikeium = assay: Kill or inhibit growth/proliferation; morphology, biofilm and growth disruption (Tables 5, 6); assay type: cell-based, Corynebacterium jeikeium; set-up: key: A: Peptide aggregates; B: Less hyphal formation; Clumps; Diffuse clumps and small polyps; F: Diffuse growth; H: Thin; I: Growth inhibition; Microcolony formation; Rippled; Small polyps; Thick; W: Halo formation on top, microlonies on bottom; note: test concentration or dose not given here
B. subtilis = assay: as above; assay type: cell-based, Bacillus subtilis; set-up: key: A: Peptide aggregates; B: Less hyphal formation; Clumps; Diffuse clumps and small polyps; F: Diffuse growth; H: Thin; I: Growth inhibition; Microcolony formation; Rippled; Small polyps; Thick; W: Halo formation on top, microlonies on bottom
S. pneumoniae = assay: as above; assay type: cell-based, Streptococcus pneumoniae; set-up: key: A: Peptide aggregates; B: Less hyphal formation; Clumps; Diffuse clumps and small polyps; F: Diffuse growth; H: Thin; I: Growth inhibition; Microcolony formation; Rippled; Small polyps; Thick; W: Halo formation on top, microlonies on bottom
C. jejuni = assay: as above; assay type: cell-based, Campylobacter jejuni; set-up: key: A: Peptide aggregates; B: Less hyphal formation; Clumps; Diffuse clumps and small polyps; F: Diffuse growth; H: Thin; I: Growth inhibition; Microcolony formation; Rippled; Small polyps; Thick; W: Halo formation on top, microlonies on bottom
[2] = microorganism the targeting peptide binds, binding in aqueous buffers varied by peptide solubility
[3] = microorganism(s) the targeting peptide binds, peptide binding conducted in aqueous buffers varied by peptide solubility
Throughout, for Organism, effect: test concentration or dose not given here.

Substance	Organism, effect (M. luteus)	Organism, effect (S. epidermidis)	Organism, effect (MRSA)	Activities (microorganisms)	Target(s) [1, 2]	Organism, effect (C. jeikeium)	Organism, effect (B. subtilis)	Target(s) ([1]; microorganism(s) the targeting peptide binds, binding in aqueous buffers depending on peptide solubility)	Target(s) [1, 3]	Organism, effect (S. pneumoniae)	Organism, effect (C. jejuni)
LIQKGLNQTFIVVIRLNNFIKKS [PF-013]	M. luteus (D)	S. epidermidis (C)	MRSA (R)	G B	M. luteus and P. mirabilis and E. coli and P. aeruginosa and MRSA and S. pneumoniae and C. jeikeium and C. jejuni	C. jeikeium (D)					
PF-003: peptide having multiple activities (chain 1 MNNWIKVAQISVTVINEVIDIMKEKQNGGK; chain 2 MNNWIKVAQISVTVINEVIDIMKEKQNGGK; Peptide with targeting and/or antimicrobial activity)	M. luteus (A)	S. epidermidis (D)	MRSA (R)	G B	S. epidermidis and M. luteus and P. mirabilis and C. albicans and MRSA and C. jeikeium	C. jeikeium (A)					
PF-010: peptide having multiple activities (chain 1 MDIDVNKLLQAFVYFKSFEKLRHNNS; chain 2 MDIDVNKLLQAFVYFKSFEKLRHNNS; Peptide with targeting and/or antimicrobial activity)	M. luteus (A)	S. epidermidis (S)	MRSA (R)	G B	S. epidermidis; also recorded: M. luteus; also recorded: E. coli; also recorded: C. albicans	C. jeikeium (A)					
PF-021: peptide having multiple activities (chain 1 FSLNFSKQKYVTVN; chain 2 FSLNFSKQKYVTVN; Peptide with targeting and/or antimicrobial activity)	M. luteus (A)	S. epidermidis (A)	MRSA (R)	G B	S. epidermidis; also recorded: M. luteus; also recorded: P. mirabilis; also recorded: E. coli; also recorded: C. albicans; also recorded: E. faecalis; also recorded: C. jeikeium	C. jeikeium (R)					
PF-022: peptide having multiple activities (chain 1 MINELKNKNSGIMNNYVVTKESKL; chain 2 MINELKNKNSGIMNNYVVTKESKL; Peptide with targeting and/or antimicrobial activity)	M. luteus (A)	S. epidermidis (D)	MRSA (R)	G B		C. jeikeium (A)					
PF-025: peptide having multiple activities (chain 1 LLIIFRLWLELKWKNKK; chain 2 LLIIFRLWLELKWKNKK; Peptide with targeting and/or antimicrobial activity)	M. luteus (A)	S. epidermidis (S)	MRSA (R)	G B	S. epidermidis and M. luteus and P. mirabilis and E. coli and P. aeruginosa and MRSA and E. faecalis and C. jejuni	C. jeikeium (A)					
PF-030: peptide having multiple activities (chain 1 MTCHQAPTTTHQSNMA; chain 2 MTCHQAPTTTHQSNMA; Peptide with targeting and/or antimicrobial activity)	M. luteus (C)	S. epidermidis (D)	MRSA (R)	G B		C. jeikeium (C)					
PF-036: peptide having multiple activities (chain 1 ILNRLSRIVSNEVTSLIYSLK; chain 2 ILNRLSRIVSNEVTSLIYSLK; Peptide with targeting and/or antimicrobial activity)	M. luteus (A)	S. epidermidis (S)	MRSA (R)	G B	S. epidermidis and M. luteus and P. mirabilis and E. coli and C. albicans and MRSA and S. pneumoniae and C. jejuni	C. jeikeium (A)					
PF-042: peptide having multiple activities (chain 1 LLLSYFRYTGALLQSLF; chain 2 LLLSYFRYTGALLQSLF; Peptide with targeting and/or antimicrobial activity)	M. luteus (C)	S. epidermidis (D)	MRSA (R)	G B		C. jeikeium (S)					
PF-043: peptide having multiple activities (chain 1 MIKNETAYQMNELLVIRSAYAK; chain 2 MIKNETAYQMNELLVIRSAYAK; Peptide with targeting and/or antimicrobial activity)	M. luteus (C)	S. epidermidis (D)	MRSA (R)	G B	M. luteus; also recorded: C. jejuni	C. jeikeium (A)					
PF-052: peptide having multiple activities (chain 1 QELINEAVNLLVKSK; chain 2 QELINEAVNLLVKSK; Peptide with targeting and/or antimicrobial activity)	M. luteus (A)	S. epidermidis (S)	MRSA (R)	G B	S. epidermidis and M. luteus and E. coli and MRSA and E. faecalis and C. jeikeium and C. jejuni	C. jeikeium (D)					
PF-070: peptide having multiple activities (SMVKSEIVDLLNGEDNDD; Peptide with targeting and/or antimicrobial activity)				G B	S. epidermidis; also recorded: C. jejuni		B. subtilis (D)				
PF-076: peptide having multiple activities (LYQYELLSKEEYLKCTLIINQRRNEQK; Peptide with targeting and/or antimicrobial activity)	M. luteus (A)	S. epidermidis (S)	MRSA (R)	G B		C. jeikeium (A)					
PF-303 (EYPWSWISEPWPWDKSFYK; Peptide with targeting and/or antimicrobial activity)							B. subtilis (C)				
PF-306: peptide having multiple activities (GCILPHKKDNYNYIMSKFQDLVKITSKK; Peptide with targeting and/or antimicrobial activity)				G B			B. subtilis (C)	C. difficile			
PF-550: peptide having multiple activities (chain 1 STENGWQEFESYADVGVDPRRYVPL; chain 2 STENGWQEFESYADVGVDPRRYVPL; Peptide with targeting and/or antimicrobial activity)				G B			B. subtilis (D)		S. pneumoniae		
PF-567: peptide having multiple activities (chain 1 QQRVKAVDASLSQVSTQVSGAVASA; chain 2 QQRVKAVDASLSQVSTQVSGAVASA; Peptide with targeting and/or antimicrobial activity)	M. luteus (C)		MRSA (D)	G B		C. jeikeium (C)			S. epidermidis and P. aeruginosa and C. albicans and MRSA and S. pneumoniae and C. jeikeium	S. pneumoniae (D)	C. jejuni (D)
PF-571 (SDLLYYPNENREDSPAGVVKEVKE; Peptide with targeting and/or antimicrobial activity)							B. subtilis (D)				
PF-574 (LVKSGKLESPYEHSEHLTLSQEKGLE; Peptide with targeting and/or antimicrobial activity)							B. subtilis (D)				

From patent US20110039762A1, “TARGETED ANTIMICROBIAL MOIETIES” (C3 JIAN, INC., priority 2009, published 2011)
